# Assays:
# AMPK 111 = biological target: T1, AMPK 111 (Homo sapiens, UniProt Q13131+Q9Y478); experiment: Biochemical profiling of AMPK activators by AMPK111 (HTRF/TR-FRET assay, SAMS peptide, PP2A dephosphorylation protection); settings: for EC50: phosphorylated AMPK 111 (α1β1δ1 as printed), 11 point dilution, duplicate, 4-parameter fit; for Emax: phosphorylated AMPK 111, maximal activation
# T1 construct: open reading frames encoding the full-length α1, β1 and δ1 subunits of human AMPK; made in house; host or cells: E. coli BL21-CodonPlus (DE3)-RIPL, pET-14b
# T1 sequence (Q13131 whole entry): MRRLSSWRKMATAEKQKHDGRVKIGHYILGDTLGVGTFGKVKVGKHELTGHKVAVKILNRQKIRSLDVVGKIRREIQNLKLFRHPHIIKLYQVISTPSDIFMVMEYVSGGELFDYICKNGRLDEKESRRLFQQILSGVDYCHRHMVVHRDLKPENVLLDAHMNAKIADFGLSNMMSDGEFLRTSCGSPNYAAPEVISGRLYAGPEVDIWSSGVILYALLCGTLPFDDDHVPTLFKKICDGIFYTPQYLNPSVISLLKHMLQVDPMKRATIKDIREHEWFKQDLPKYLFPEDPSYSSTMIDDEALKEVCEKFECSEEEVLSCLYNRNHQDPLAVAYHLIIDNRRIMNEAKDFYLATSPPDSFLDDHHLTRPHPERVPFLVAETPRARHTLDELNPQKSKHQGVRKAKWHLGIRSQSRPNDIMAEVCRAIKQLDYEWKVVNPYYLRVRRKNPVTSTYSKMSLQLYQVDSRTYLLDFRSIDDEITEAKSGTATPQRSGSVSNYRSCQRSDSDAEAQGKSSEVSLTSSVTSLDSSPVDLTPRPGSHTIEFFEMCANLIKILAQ
# T1 sequence (Q9Y478 whole entry): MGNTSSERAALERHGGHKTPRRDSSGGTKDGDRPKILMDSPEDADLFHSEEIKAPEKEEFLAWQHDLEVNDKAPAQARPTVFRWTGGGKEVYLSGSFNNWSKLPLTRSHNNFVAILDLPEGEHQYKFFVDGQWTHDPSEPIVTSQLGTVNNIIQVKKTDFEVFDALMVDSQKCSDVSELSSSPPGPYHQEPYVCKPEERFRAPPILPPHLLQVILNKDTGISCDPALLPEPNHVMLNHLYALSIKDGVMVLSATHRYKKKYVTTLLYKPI
# T1 sequence (P54619 whole entry partner): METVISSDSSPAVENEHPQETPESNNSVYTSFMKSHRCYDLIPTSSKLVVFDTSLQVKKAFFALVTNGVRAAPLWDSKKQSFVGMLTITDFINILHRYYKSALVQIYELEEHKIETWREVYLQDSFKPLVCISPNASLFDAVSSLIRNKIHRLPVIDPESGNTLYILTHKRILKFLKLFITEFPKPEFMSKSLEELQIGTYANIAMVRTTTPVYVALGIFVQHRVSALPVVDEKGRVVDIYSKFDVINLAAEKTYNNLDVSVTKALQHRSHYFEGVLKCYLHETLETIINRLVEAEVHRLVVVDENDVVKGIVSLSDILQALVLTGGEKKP
# Description: (§1) The biochemical EC50 (half-maximal concentration required for full activation) of compounds for the activation of AMPK was evaluated by HTRF assay using LANCE Ultra ULight-Acetyl-CoA Carboxylase (SAMS) peptide (commercially available, Perkin Elmer catalog TRF0133-M).
# Following a fifteen-minute room temperature incubation, 5 μL of 30 nM protein phosphatase PP2A (isolation detailed above) diluted in the assay buffer was added to the plate, to dephosphorylate pThr172 of AMPK. […] The reaction was terminated after 60 minutes incubation at room temperature, by the addition of 5 μL of stop and detection cocktail, which consisted of 1× Perkin Elmer Lance buffer (Perkin Elmer catalog number CR97-100), 40 mM EDTA (Thermo Fisher catalog number BP2482-100), and 2 nM Eu-anti-Acetyl CoA Carboxylase [pSer70] antibody (Perkin Elmer, TRF0208-M).
# AMPK 221 = biological target: T2, AMPK 221 (Homo sapiens, UniProt O43741+P54646); experiment: Biochemical profiling of AMPK activators by AMPK221 (HTRF/TR-FRET assay, SAMS peptide, PP2A dephosphorylation protection); settings: for EC50: phosphorylated AMPK 221 (α2β2δ1), 11 point dilution, duplicate, 4-parameter fit; for Emax: phosphorylated AMPK 221, maximal activation
# T2 construct: open reading frames encoding the full-length α2, β2 and δ1 subunits of human AMPK; made in house; host or cells: E. coli BL21-CodonPlus (DE3)-RIPL, pET-14b
# T2 sequence (P54646 whole entry): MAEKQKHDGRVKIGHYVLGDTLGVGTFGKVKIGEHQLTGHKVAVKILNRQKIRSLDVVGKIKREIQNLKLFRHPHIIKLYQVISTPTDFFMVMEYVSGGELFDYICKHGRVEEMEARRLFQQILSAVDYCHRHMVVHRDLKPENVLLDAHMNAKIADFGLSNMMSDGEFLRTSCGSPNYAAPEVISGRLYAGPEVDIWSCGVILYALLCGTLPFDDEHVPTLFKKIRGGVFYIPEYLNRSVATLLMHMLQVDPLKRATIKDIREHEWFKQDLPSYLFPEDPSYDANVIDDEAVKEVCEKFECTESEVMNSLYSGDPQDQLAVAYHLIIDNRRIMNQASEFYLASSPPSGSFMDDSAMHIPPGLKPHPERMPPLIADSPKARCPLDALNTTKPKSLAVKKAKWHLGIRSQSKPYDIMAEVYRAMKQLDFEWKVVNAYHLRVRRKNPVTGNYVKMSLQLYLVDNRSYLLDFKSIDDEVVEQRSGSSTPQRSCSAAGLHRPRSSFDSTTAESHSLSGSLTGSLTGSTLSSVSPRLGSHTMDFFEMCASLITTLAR
# T2 sequence (O43741 whole entry): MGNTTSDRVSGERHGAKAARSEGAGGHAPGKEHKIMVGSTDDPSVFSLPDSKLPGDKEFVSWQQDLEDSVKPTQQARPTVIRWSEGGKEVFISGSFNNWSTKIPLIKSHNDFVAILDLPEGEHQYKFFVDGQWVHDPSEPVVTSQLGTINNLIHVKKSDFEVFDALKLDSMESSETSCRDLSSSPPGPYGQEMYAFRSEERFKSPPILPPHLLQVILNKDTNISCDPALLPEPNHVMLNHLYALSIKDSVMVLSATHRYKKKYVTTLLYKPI
# T2 sequence (P54619 whole entry partner): as the sequence (P54619 whole entry partner) above
# Description: as §1
# The reaction was terminated after 60 minutes incubation at room temperature by the addition of 5 μL of stop and detection cocktail, which consisted of 1× Perkin Elmer Lance buffer (Perkin Elmer catalog number CR97-100), 40 mM EDTA (Thermo Fisher catalog number BP2482-100), and 2 nM Eu-anti-Acetyl CoA Carboxylase [pSer70] antibody (Perkin Elmer, TRF0208-M). Plates were spun at 1000 RPM, 10 seconds.
Structure (SMILES),EC50 (AMPK 111) [nM],Emax (AMPK 111) [%],EC50 (AMPK 221) [nM],Emax (AMPK 221) [%]
"COc1cc(F)cc(-c2ccc(-c3cc4c(CCC(=O)O)n[nH]c4cc3Cl)cc2)c1O [Example 42, 3-(6-chloro-5-(5′-fluoro-2′-hydroxy-3′-methoxy-[1,1′-biphenyl]-4-yl)-1H-indazol-3-yl)propanoic acid]",291,68,244,64
"CC(C)Oc1cccc(-c2ccc(-c3cc4c(CCC(=O)O)n[nH]c4cc3Cl)cc2)c1O [Example 37, 3-(6-chloro-5-(2′-hydroxy-3′-isopropoxy-[1,1′-biphenyl]-4-yl)-1H-indazol-3-yl)propanoic acid]",464,70,205,52
"O=C(O)CCc1n[nH]c2cc(Cl)c(-c3ccc(-c4csc(CO)n4)cc3)cc12 [Example 66, 3-(6-chloro-5-(4-(2-(hydroxymethyl)thiazol-4-yl)phenyl)-1H-indazol-3-yl)propanoic acid]",365,74,1090,63
"CS(=O)(=O)Nc1ccc(-c2ccc(-c3cc4c(CCC(=O)O)n[nH]c4cc3Cl)cc2)cc1 [Example 32, 3-(6-chloro-5-(4′-(methylsulfonamido)-[1,1′-biphenyl]-4-yl)-1H-indazol-3-yl)propanoic acid]",136,71,198,41
"CN(C)C(=O)c1ccc(-c2ccc(-c3cc4c(CCC(=O)O)n[nH]c4cc3Cl)cc2)cc1 [Example 29, 3-(6-chloro-5-(4′-(dimethylcarbamoyl)-[1,1′-biphenyl]-4-yl)-1H-indazol-3-yl)propanoic acid]",46,72,162,63
"N#Cc1cc2[nH]nc(CCC(=O)O)c2cc1-c1ccc(-c2ccccc2O)cc1 [Example 35, 3-(6-cyano-5-(2′-hydroxy-[1,1′-biphenyl]-4-yl)-1H-indazol-3-yl)propanoic acid]",137,67,198,47
"O=C(O)CCc1n[nH]c2cc(Cl)c(-c3ccc(-c4ccc(F)c(F)c4O)cc3)cc12 [Example 71, 3-(6-chloro-5-(3′,4′-difluoro-2′-hydroxy-[1,1′-biphenyl]-4-yl)-1H-indazol-3-yl)propanoic acid]",279,73,994,60
"O=C(O)CCc1n[nH]c2cc(Cl)c(-c3ccc(-c4cnsc4)cc3)cc12 [Example 65, 3-(6-chloro-5-(4-(isothiazol-4-yl)phenyl)-1H-indazol-3-yl)propanoic acid]",263,79,795,58
"O=C(O)CCc1n[nH]c2cc(Cl)c(-c3ccc(-c4ccccc4)cc3)cc12 [Example 51, 3-(5-([1,1′-biphenyl]-4-yl)-6-chloro-1H-indazol-3-yl)propanoic acid]",312,71,355,22
"COc1c(F)ccc(-c2ccc(-c3cc4c(CCC(=O)O)n[nH]c4cc3Cl)cc2)c1O [Example 16, 3-(6-chloro-5-(4′-fluoro-2′-hydroxy-3′-methoxy-[1,1′-biphenyl]-4-yl)-1H-indazol-3-yl)propanoic acid]",37,86,81,64
"NC(=O)COc1ccc(-c2ccc(-c3cc4c(CCC(=O)O)n[nH]c4cc3Cl)cc2)cc1 [Example 72, 3-(5-(4′-(2-amino-2-oxoethoxy)-[1,1′-biphenyl]-4-yl)-6-chloro-1H-indazol-3-yl)propanoic acid]",99,103,1830,114
"COc1ccc(C)c(-c2ccc(-c3cc4c(CCCC(=O)O)n[nH]c4cc3Cl)cc2)c1O [Example 78, 4-(6-chloro-5-(2′-hydroxy-3′-methoxy-6′-methyl-[1,1′-biphenyl]-4-yl)-1H-indazol-3-yl)butanoic acid]",93,78,87,66
"NS(=O)(=O)c1ccc(-c2ccc(-c3cc4c(CCC(=O)O)n[nH]c4cc3Cl)cc2)cc1 [Example 40, 3-(6-chloro-5-(4′-sulfamoyl-[1,1′-biphenyl]-4-yl)-1H-indazol-3-yl)propanoic acid]",92,85,306,68
"O=C(O)CCc1c[nH]c2cc(Cl)c(-c3ccc(-c4ccccc4O)cc3)cc12 [Example 4, 3-(6-Chloro-5-(2′-hydroxy-[1,1′-biphenyl]-4-yl)-1H-indol-3-yl)propanoic acid]",62,74,665,34
"O=C(O)CCc1n[nH]c2cc(F)c(-c3ccc(-c4ccccc4O)cc3)cc12 [Example 33, 3-(6-fluoro-5-(2′-hydroxy-[1,1′-biphenyl]-4-yl)-1H-indazol-3-yl)propanoic acid]",301,57,196,57
"CCOc1cccc(-c2ccc(-c3cc4c(CCC(=O)O)n[nH]c4cc3Cl)cc2)c1O [Example 25, 3-(6-chloro-5-(3′-ethoxy-2′-hydroxy-[1,1′-biphenyl]-4-yl)-1H-indazol-3-yl)propanoic acid]",144,71,107,61
"Cc1cc(C)c(-c2ccc(-c3cc4c(CCC(=O)O)n[nH]c4cc3Cl)cc2)c(O)c1 [Example 18, 3-(6-chloro-5-(2′-hydroxy-4′,6′-dimethyl-[1,1′-biphenyl]-4-yl)-1H-indazol-3-yl)propanoic acid]",12,84,96,64
"O=C(O)CCc1n[nH]c2cc(Cl)c(-c3ccc(-c4c(O)cccc4F)cc3)cc12 [Example 50, 3-(6-chloro-5-(2′-fluoro-6′-hydroxy-[1,1′-biphenyl]-4-yl)-1H-indazol-3-yl)propanoic acid]",153,76,337,55
"O=C(O)CCc1n[nH]c2cc(Cl)c(-c3ccc(-c4cccc(Cl)c4O)cc3)cc12 [Example 45, 3-(6-chloro-5-(3′-chloro-2′-hydroxy-[1,1′-biphenyl]-4-yl)-1H-indazol-3-yl)propanoic acid]",123,82,263,66
"O=C(O)CCc1n[nH]c2cc(Cl)c(-c3ccc(-c4ccc5c(c4)CS(=O)(=O)C5)cc3)cc12 [Example 54, 3-(6-chloro-5-(4-(2,2-dioxido-1,3-dihydrobenzo[c]thiophen-5-yl)phenyl)-1H-indazol-3-yl)propanoic acid]",217,61,1010,64
"O=C(O)CCc1n[nH]c2cc(Cl)c(-c3ccc(-c4c(O)cccc4Cl)cc3)cc12 [Example 46, 3-(6-chloro-5-(2′-chloro-6′-hydroxy-[1,1′-biphenyl]-4-yl)-1H-indazol-3-yl)propanoic acid]",20,82,267,59
"NC(c1ccc(-c2ccc(-c3cc4c(CCC(=O)O)n[nH]c4cc3Cl)cc2)c(O)c1)C(F)(F)F (stereo not drawn) [Example 13, 3-(5-(4′-(1-amino-2,2,2-trifluoroethyl)-2′-hydroxy-[1,1′-biphenyl]-4-yl)-6-chloro-1H-indazol-3-yl)propanoic acid]",21,86,69,67
"CSc1ccc(-c2ccc(-c3cc4c(CCC(=O)O)n[nH]c4cc3Cl)cc2)c(O)c1 [Example 63, 3-(6-chloro-5-(2′-hydroxy-4′-(methylthio)-[1,1′-biphenyl]-4-yl)-1H-indazol-3-yl)propanoic acid]",281,56,565,64
"COc1c(Cl)ccc(-c2ccc(-c3cc4c(CCC(=O)O)n[nH]c4cc3Cl)cc2)c1O [Example 28, 3-(6-chloro-5-(4′-chloro-2′-hydroxy-3′-methoxy-[1,1′-biphenyl]-4-yl)-1H-indazol-3-yl)propanoic acid]",277,73,136,63
"Cc1cccc(O)c1-c1ccc(-c2cc3c(CCCC(=O)O)n[nH]c3cc2Cl)cc1 [Example 75, 4-(6-chloro-5-(2′-hydroxy-6′-methyl-[1,1′-biphenyl]-4-yl)-1H-indazol-3-yl)butanoic acid]",74,75,229,63
"COCc1ccc(-c2ccc(-c3cc4c(CCC(=O)O)n[nH]c4cc3Cl)cc2)c(O)c1 [Example 10, 3-(6-chloro-5-(2′-hydroxy-4′-(methoxymethyl)-[1,1′-biphenyl]-4-yl)-1H-indazol-3-yl)propanoic acid]",29,76,–,–

# Source: patent US20240336572A1, “SUBSTITUTED INDAZOLE PROPIONIC ACID DERIVATIVE COMPOUNDS AND USES THEREOF” (Pfizer Inc., priority 2023, published 2024)
